Test results as given in patent US12343319B2, “Compositions and methods for treatment of diseases and disorders” (Atai Therapeutics Inc., priority 2023, dated 2025).

Tests used:
Male Sprague-Dawley rats = test: Rat forced swim test, immobility frequency; assay type: in vivo; conditions: 3 and 30 mg/kg, i.p. at 23.5, 16 and 0.5 hours prior; 5-minute swim test
Experimental: Male Sprague-Dawley rats were placed individually in clear acrylic swim chambers (40 cm height×20.3 cm diameter) filled to 16 cm for a 15-minute pre-swim session on day 1 and filled to 30 cm for a 5-minute swim test session 24 hours later. Rats (n=10 per treatment group) were administered compound 2-1 (3, 10, 30 mg/kg, i.p., 1 mL/kg, based on weight of the free base) or vehicle (40% (w/v) 2-HPBCD in water, i.p.) at 23.5, 16 and 0.5 hours prior to the swim test. The rapid-acting antidepressant, ketamine (10 mg/kg, i.p.), was included in the study as a positive control condition and injected once 24 hours prior to the swim test.

[1] = test system: primary cortical rat neurons; test: Synaptogenesis assay in primary cortical rat neurons; assay type: cell-based; conditions: 1 μM (highest concentration), DIV1-DIV10
Experimental: Pregnant rats for this study were purchased from a commercial breeder. Primary cortical neurons from E17/E18 rat pups were isolated and seeded in 96-well plates. Cells were treated with compound 2-2, FGF (Reference item) or vehicle. After incubation with the respective treatment, cortical neurons were stained for synapsin and tubulin using immunofluorescence.
Stained cells were imaged with the Cytation 5 Multimode reader. From each well, 9 images were taken at 10× magnification. Digital images from cortical neurons were analyzed for the following parameter using a software-supported automatic quantification method: Number of synapsin positive objects. Analysis was performed using Gen5 software. The experiment was run in n=10 technical replicates per condition. Vehicle control and FGF were included on each plate totaling n=20 technical replicates.
Primary cortical neurons were prepared from timed pregnant Spargue Dawley rats at E17/E18. Animals were sacrificed (see section 3.3.1) and embryos were dissected in Calcium and Magnesium free Hanks Balanced Salt Solution (CMF-HBSS) containing 15 mM HEPES and 10 mM NaHCO3, pH 7.2. Embryos were decapitated, skin and skull gently removed and hemispheres were separated. After removing meninges and brain stem, the cortices were isolated, chopped with a sterile razor blade in Chop solution (Hibernate-E without Calcium containing 2% B-27) and digested in 2 mg/mL papain (Worthington) dissolved in Hibernate-E without Calcium for 30 minutes (±5 min) at 30° C. The cortices of the embryos from the two rats were pooled and processed together.
Cortices were triturated for 10-15 times with a fire-polished silanized Pasteur pipette in Hibernate-E without Calcium containing 2% B-27, 0.01% DNaseI, 1 mg/mL BSA, and 1 mg/mL Ovomucoid Inhibitor. Undispersed pieces were allowed to settle by gravity for 3 min and the supernatant was centrifuged for 3 min at 228 g. […]
Cells were counted in a hemacytometer and seeded in nutrition medium on poly-D-lysine pre-coated 96-well plates at a density of 1.5×10^4 cells/well. […]

Structure (SMILES) | frequency of immobility compared to vehicle (Male Sprague-Dawley rats) | synaptogenesis compared to VC (synapsin positive objects normalized to tubulin III area) [1]
COc1ccc(OC)c(CCNCc2cc(C)cc(Cl)c2)c1 [Compound 2-1, N-(3-chloro-5-methylbenzyl)-2-(2,5-dimethoxyphenyl)ethan-1-amine] | significantly decreased | –
COc1ccc(OC)c(CCNCc2cc(C)cc(F)c2)c1 [Compound 2-2, 2-(2,5-dimethoxyphenyl)-N-(3-fluoro-5-methylbenzyl)ethan-1-amine] | – | did not have any significant effect
